We go through one compound from US7550456B2, “Substituted aryl cycloalkanoyl derivatives and methods of their use” (Wyeth, priority 2003, dated 2009).

Structures can show the parent of a compound that is named as a salt.

The assay addresses T1, human hNET (Homo sapiens, UniProt P23975).
T1 construct: expressed in transfected cells; host or cells: MDCK-Net6 (MDCK cells, stably transfected)
The experiment in a line: Norepinephrine (NE) uptake assay in MDCK-Net6 cells. The class given is cell-based. The following applies: 1 μM test compound, [3H]NE uptake, read-out: % Inhibition @ 1 μM (hNET). An outline of the steps:
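Radiolabelled NE uptake was counted by scintillation after NaOH lysis, with 1 µM desipramine defining non-specific uptake. EC50 came from a logistic dose-response fit.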

T1 sequence (P23975 whole entry): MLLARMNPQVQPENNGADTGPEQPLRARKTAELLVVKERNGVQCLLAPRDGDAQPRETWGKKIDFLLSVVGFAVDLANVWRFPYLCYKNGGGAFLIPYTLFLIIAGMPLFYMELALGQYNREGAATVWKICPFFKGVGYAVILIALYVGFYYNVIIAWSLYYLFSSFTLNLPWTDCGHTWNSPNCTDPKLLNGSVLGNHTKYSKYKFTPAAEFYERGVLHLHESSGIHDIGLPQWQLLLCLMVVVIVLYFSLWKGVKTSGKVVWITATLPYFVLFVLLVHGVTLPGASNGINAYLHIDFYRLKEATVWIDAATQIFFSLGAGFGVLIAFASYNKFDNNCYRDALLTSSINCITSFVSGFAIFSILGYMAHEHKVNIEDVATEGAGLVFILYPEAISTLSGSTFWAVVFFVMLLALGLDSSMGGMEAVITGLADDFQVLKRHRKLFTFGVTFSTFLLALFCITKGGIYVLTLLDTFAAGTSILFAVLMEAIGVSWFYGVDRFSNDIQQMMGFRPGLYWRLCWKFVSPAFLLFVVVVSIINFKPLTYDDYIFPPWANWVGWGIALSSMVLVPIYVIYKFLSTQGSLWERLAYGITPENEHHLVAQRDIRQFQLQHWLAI

Regarding `C[C@H](Oc1ccc(C(CN2CCN(C)CC2)C2(O)CCCCC2)cc1)c1ccccc1` (stereo partly drawn) [Example 470, 1-(2-(4-methylpiperazin-1-yl)-1-{4-[(1S)-1-phenylethoxy]phenyl}ethyl)cyclohexanol dihydrochloride], the inhibition at 1 µM is 14%.

What is called inhibition is how much of the control response was suppressed.
